Consider one substance from patent US8197838B2, “Sustained release systems of ascorbic acid phosphate” (Advanced Technologies and Regenerative Medicine, LLC., priority 2008, dated 2012).

Data set [1] in a line: AZP drying condition evaluation (weight loss on heating). In kind it is physicochemical. The settings on record: for Total Weight loss after 2nd Heat: cumulative; for Weight loss after 1st Heat: Trisodium Salt. The procedure: The following drying conditions for 2-Phospha-L-ascorbic Acid Trisodium Salt (AZP), (>98% (HPLC), Fluka, Lot#: 1322473 52607420) were tested: 90° C./24 hrs. under vacuum, 160° C./30 minutes under dry nitrogen blanket, and 200° C./30 minutes under dry nitrogen blanket. The times tested include estimating the compounding time and time for sample collection and cooling.
6 glass vials were pre-dried in a vacuum oven at 160° C. for 30 minutes and transferred to a glove box purged with dry nitrogen gas. AZP powder was weighed in each vial (see Table 1) in the glove box.
(§1) The dried AZP powder vials were sealed with Parafilm and stored under dry a nitrogen blanket until evaluation. The weight loss % was cumulative over both heating conditions. The samples under RT/N2 were stored in nitrogen box. The samples were evaluated for color change of the course of the heating conditions. Color change is an indicator of AZP degradation. […] The higher temperature and shorter time could have the same drying effects on the weight loss. […] Therefore 160° C. and 30 minutes were selected as the upper limits of the drying and processing condition

The conditions of data set [2]: stated by material safety data sheet from an AZP manufacturer; cited from earlier work.
A short description of data set [3]: Color change as indicator of AZP degradation. In kind it is physicochemical. The procedure: as §1
Films were prepared as follow: The platens of a compression molding instrument (Carver Laboratory Press, Model: 2696) were pre-heated to 205° C. About 3.5 grams of the composition were placed on the platens and heated for 5 minutes. Pressure was applied (about 20,000 lbs) for about 2 minutes. The heating was stopped and the platens and film were allowed to cool to RT under water cooling and continued pressure.

“And” between values parts separate entries of the source, which are not always exact repeats. Equal values may be shown once.

As to “2-Phospha-L-ascorbic Acid Trisodium Salt [AZP]”, the “Total Weight loss after 2nd Heat” value in data set [1] (1st 90° C./Vac 24 hours, 2nd 160° C./N2/air 30 min) was 6.25 wt %; in data set [1] (1st 90° C./Vac 24 hours, 2nd 200° C./N2/air 30 min), 6.75 wt %; in data set [1] (1st 90° C./Vac 24 hours, 2nd RT/N2 30 min), 4.41 wt %; in data set [1] (1st RT/N2 24 hours, 2nd 160° C./N2/air 30 min), 10.06 wt %; in data set [1] (1st RT/N2 24 hours, 2nd 200° C./N2/air 30 min) it was 8.10 wt %; in data set [1] (1st RT/N2 24 hours, 2nd RT/N2 30 min (control)) it was 0.25 wt %. The “Weight loss after 1st Heat” value is 8.09 wt % and 7.59 wt % and 6.43 wt % in data set [1] (1st heat for 24 hours 90° C./Vac); 1.18 wt % and 1.76 wt % and 1.00 wt % in data set [1] (1st heat for 24 hours RT/N2). Further, the “Moisture content of AZP as received” value in data set [1] (as received) is on record as “up to 7.5 % by weight”. In data set [2], the “Degradation temperature of AZP” value was “about 260 °C”. In addition, the “Color change of AZP powder (indicator of degradation)” value is “darkest yellow color” in data set [3] (sample number 6, 90° C./Vac 24 hrs then heated to 200° C.); “very slight yellow color” in data set [3] (samples heated at 90° C./24 hrs.); “retained the original white color” in data set [3] (samples heated for no more than 30 minutes); “slightly yellow color” in data set [3] (samples that underwent 2 heat treatments).
